{"source": "a melting point compilation (Tetko et al.; mined from patent text by program, amines drawn as free bases though some values may be those of a salt)"}
{"units": {"melting point": "°C"}}
{"smiles": "COc1ccc(C=C2c3ccccc3C(=NOCC(=O)O)c3ccccc32)cc1O", "melting point": "232 to 234"}
{"smiles": "CCC(CC)Nc1cc(C)nc(Oc2c(C)cc(C)cc2C)c1NC(C)=O", "melting point": "154 to 156"}
{"smiles": "CCCc1nn(-c2ccc(C(F)(F)F)cn2)cc1CCCOc1cc(CCC(=O)O)n(C)n1", "melting point": "80 to 81"}
{"smiles": "CC(C)(C)OC(=O)NCC1CCc2cc(O)ccc2C1", "note": "(stereo not given)", "melting point": 114}
{"smiles": "Cc1ccc(-c2cc(C(=O)O)c(=O)n(CC(C)C)n2)cc1F", "melting point": "159 to 160"}
{"smiles": "Cc1nc2cccnc2n(-c2ccc(Cl)cc2)c1=O", "melting point": "245 to 246"}
{"smiles": "Cn1nc(Cl)n(-c2ccccc2CBr)c1=O", "melting point": "132 to 133"}
{"smiles": "CC(C)=CCc1cc(C2Oc3c(CC=C(C)C)c(O)cc(O)c3C(=O)C2O)ccc1O", "note": "(stereo not given)", "melting point": "95 to 96"}
{"smiles": "COC(=O)CNc1ccc(CNC(=O)C2Cc3ccccc3N2S(=O)(=O)c2ccc(-c3cccc(C(F)(F)F)c3)cc2)cc1", "note": "(stereo not given)", "melting point": 85}
{"smiles": "CNCC1CC(C)(O)c2ccc(S(=O)(=O)c3ccccc3)cc2O1", "note": "(stereo not given)", "melting point": "164 to 165"}
{"smiles": "N#CCc1ccccc1Sc1ccc(Cl)c(Cl)c1", "melting point": "48 to 49"}
{"smiles": "O=C(O)c1ccc2c(c1)S(=O)(=O)c1ccccc1O2", "melting point": 286}
{"smiles": "CCCCC12CCC3C4=C(CCC3C1CCC2O)CC(OC)=CC4", "note": "(stereo not given)", "melting point": "135 to 139"}
{"smiles": "O=Cc1cccnc1Br", "melting point": "74 to 76"}
{"smiles": "CN1CCc2c(Cl)ccc3c4c(n(c23)CC1)CCCCC4", "melting point": "132 to 134"}
{"smiles": "CC(C)Cn1c(-c2c(F)cccc2F)c(Br)nc(Br)c1=O", "melting point": "125 to 126"}
{"smiles": "CCN(SN(C)C=Nc1ccc(C)cc1C)c1ccccc1", "melting point": "52 to 53"}
{"smiles": "CCCCCCCCCCCCSc1cc2nc(C(CC)CCCC)oc2cc1[N+](=O)[O-]", "note": "(stereo not given)", "melting point": "108 to 110"}
{"smiles": "NC1CCNC(c2cnccn2)C1", "note": "(stereo not given)", "melting point": "158 to 160"}
{"smiles": "CCOC(=O)c1ccccc1S(=O)(=O)NC(=O)Nc1nc(Cl)cc(OC(F)(F)F)n1", "melting point": "148 to 151"}
{"smiles": "Cc1cccc(-c2nc3ccc(OCCN(C)C)cc3n2Cc2ccccc2Br)c1", "melting point": 71}
{"smiles": "CC(C)N1CC2CC(C1)CN(S(=O)(=O)c1ccccc1)C2", "melting point": "85.5 to 86.5"}
{"smiles": "CCOC(=O)CN1C(=O)N(c2ccc(C#N)c(C(F)(F)F)c2)C(=O)C1(C)C", "melting point": 152}
{"smiles": "CN(C)CCOc1nc(NCc2cccs2)nc(Nc2cccc(C(F)(F)F)c2)n1", "melting point": "51 to 53"}
{"smiles": "CCC(CC)Oc1cc(C)nc(Nc2c(C)cc(C)cc2C)c1C(=O)C#N", "melting point": "108 to 110"}
{"smiles": "C=CCOC(=O)C(C)(C)ON1C(=O)c2ccccc2C1=O", "melting point": "51 to 53"}
{"smiles": "CN(C)CC=CC(=O)Nc1ccc2ncc(C#N)c(Nc3cccc(Br)c3)c2c1", "melting point": "209 to 211"}
{"smiles": "CCCOc1ccc2c(c1)NC(=O)CO2", "melting point": "102 to 104"}
{"smiles": "CC(=O)NCc1ccc2[nH]cc(C=O)c2c1", "melting point": "182 to 184"}
{"smiles": "COC(=O)c1cc(CCN(C)CCCC(C#N)(c2ccc(OC)c(OC)c2)C(C)C)cc(C(=O)OC)c1", "note": "(stereo not given)", "melting point": "100 to 103"}
{"smiles": "CCc1ccc(C2CCCN2S(=O)(=O)c2ccc(F)cc2)cc1", "note": "(racemic)", "melting point": 93}
{"smiles": "COC(=O)c1cc(-c2ccc(OCc3cccnc3)cc2O[C@H](CCC(=O)O)c2ccccc2C)n[nH]1", "melting point": "155 to 156"}
{"smiles": "CC(=O)CC(=O)N=C1SCCN1C", "melting point": "43 to 45"}
{"smiles": "Nc1c(SSc2c(-c3ncon3)nn(-c3c(Cl)cc(C(F)(F)F)cc3Cl)c2N)c(-c2ncon2)nn1-c1c(Cl)cc(C(F)(F)F)cc1Cl", "melting point": "226 to 228"}
{"smiles": "c1ccc(COc2cccc3c2OCO3)cc1", "melting point": "62 to 63"}
{"smiles": "CCCCCc1ocnc1C(=O)O", "melting point": "84 to 85"}
{"smiles": "Nc1cc(OCc2ccccc2)c(C(=O)O)cc1Cl", "melting point": "182 to 184"}
{"smiles": "Cn1cc(C(=O)O)c(=O)c2cc3cc(F)c(N4CCNC(c5cccs5)C4)cc3nc21", "note": "(racemic)", "melting point": "268 to 270"}
{"smiles": "CC(C)CO/N=C(\\C(=O)O)c1csc(NC(c2ccccc2)(c2ccccc2)c2ccccc2)n1", "melting point": "168 to 169"}
{"smiles": "Cc1nn(C)cc1C(=O)Nc1cc(Oc2ccc3nc(NC(=O)C4CC4)cn3n2)ccc1F", "melting point": 205}
{"smiles": "CCCN1CC(c2ccc(S(C)(=O)=O)cc2)=C(c2ccc(Cl)cc2)C1=O", "melting point": "146 to 148"}
{"smiles": "COc1ccc([N+](=O)[O-])c(-c2cc(OC)ccc2[N+](=O)[O-])c1", "melting point": "148 to 149"}
{"smiles": "COC(=O)C(C)(C)Cc1c(C(=O)c2ccc(Cl)cc2)c2ccc(OC(=O)c3ccc(Cl)cc3)cc2n1C", "melting point": 138}
{"smiles": "O=C1NCC(Cc2ccccc2Br)O1", "note": "(stereo not given)", "melting point": "130 to 131"}
{"smiles": "CCCCc1nc2c(C)cccc2n1Cc1cc(C(=O)OC)no1", "melting point": "96 to 101"}
{"smiles": "O=S(=O)(CCCl)CCC(F)(F)C(F)(F)C(F)(F)C(F)(F)C(F)(F)C(F)(F)C(F)(F)C(F)(F)C(F)(F)C(F)(F)F", "melting point": "147 to 148"}
{"smiles": "COCOc1ccccc1-c1cc(-c2cccc(C(=O)O)c2)c(C#N)c(NC(=O)c2cccs2)n1", "melting point": "179 to 180"}
{"smiles": "CN1CCC(c2nn(C(=O)c3ccc(Cl)c(Cl)c3)c3ccccc23)CC1", "melting point": "187 to 189"}
{"smiles": "CSc1sc(C(N)=O)c2c1-c1[nH]ncc1CC2", "melting point": "210 to 211"}
{"smiles": "N#Cc1ccc(-c2nc(S)[nH]c2-c2ccc(Br)cc2)cc1", "melting point": "307 to 311"}
